Test results from US7858644B2, “EP4 receptor antagonists” (Asterand UK Limited, priority 2003, dated 2010).
Structures can show the parent of a compound that is named as a salt.

Key:
human EP4 receptor = target: T1, human EP4 receptor (Homo sapiens, UniProt P35408); test: Binding ability to human EP4 receptor ([3H]PGE2 displacement); conditions: read-out: pKi EP4 (converted)
T1 construct: expressed in transfected cells
Method: (§1) Membranes were prepared from cells stably transfected with human EP receptor cDNA. In brief, cells were cultured to confluency, scraped from culture flasks, and centrifuged (800 g, 8 minutes, 4° C.). Cells were twice washed in ice cold homogenisation buffer containing 10 mMTris-HCl, 1 mM EDTA. 2Na, 250 mM sucrose, 1 mM PMSF, 0.3 mM indomethacin, pH 7.4, homogenised and re-centrifuged as before. The supernatant was stored on ice and pellets re-homogenised and re-spun. Supernatants were pooled and centrifuged at 40000 g, 10 minutes, 4° C. Resultant membrane pellets were stored at −80° C. until use.
(§2) Incubations were performed at suitable temperatures and for suitable times to allow equilibrium to be reached. Non-specific binding was determined in the presence of 10 uM PGE2. Bound and free radiolabel was separated by vacuum manifold filtration using appropriate wash buffers, and bound radiolabel was determined by scintillation counting. Constituents of each of the buffers are included in table 1 below.
(§3) This approach follows that set out in Kenakin, T. P., Pharmacologic analysis of drug receptor interaction. Raven Press, New York, 2nd edition.

human EP2 receptor = target: T2, human EP2 receptor (Homo sapiens, UniProt P43116); test: Binding ability to human EP2 receptor ([3H]PGE2 displacement); conditions: read-out: pKi EP2 (converted)
T2 construct: expressed in transfected cells
T2 sequence (P43116 whole entry): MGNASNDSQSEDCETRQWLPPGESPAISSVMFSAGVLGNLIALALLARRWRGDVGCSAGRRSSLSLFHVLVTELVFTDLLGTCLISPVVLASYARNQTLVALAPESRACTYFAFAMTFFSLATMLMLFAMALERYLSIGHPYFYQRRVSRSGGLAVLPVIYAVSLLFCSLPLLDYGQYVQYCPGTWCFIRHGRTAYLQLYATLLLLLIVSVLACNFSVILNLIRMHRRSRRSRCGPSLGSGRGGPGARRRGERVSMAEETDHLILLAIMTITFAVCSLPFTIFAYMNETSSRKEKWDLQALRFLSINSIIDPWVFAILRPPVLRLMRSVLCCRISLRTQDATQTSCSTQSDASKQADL
Method: as §1
as §2, with “For assay, membranes expressing human EP4, EP3, EP2 or EP1 receptors were incubated in Millipore (MHVBN45) plates containing assay buffer, radiolabelled [^3H]PGE2 and 0.1 to 10 000 nM concentrations of compounds. Incubations” for “Incubations”
as §3

human EP3 receptor = target: T3, human EP3 receptor (Homo sapiens, UniProt P43115); test: Binding ability to human EP3 receptor ([3H]PGE2 displacement); conditions: membranes from cells stably transfected with human EP receptor cDNA; [3H]PGE2 2.5 nM; Cheng-Prusoff from IC50; read-out: pKi EP3 (converted)
T3 construct: expressed in transfected cells
T3 sequence (P43115 1-390): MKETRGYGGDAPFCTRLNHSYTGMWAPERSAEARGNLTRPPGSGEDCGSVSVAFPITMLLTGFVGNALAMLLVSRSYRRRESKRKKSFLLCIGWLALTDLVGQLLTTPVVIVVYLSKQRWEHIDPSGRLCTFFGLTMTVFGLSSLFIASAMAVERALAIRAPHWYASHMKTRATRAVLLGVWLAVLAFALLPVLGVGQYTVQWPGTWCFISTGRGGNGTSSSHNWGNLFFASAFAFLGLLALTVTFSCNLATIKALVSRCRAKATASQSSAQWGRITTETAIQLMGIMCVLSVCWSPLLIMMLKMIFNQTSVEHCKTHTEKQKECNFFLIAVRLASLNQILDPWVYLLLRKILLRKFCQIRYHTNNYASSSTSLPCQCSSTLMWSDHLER
Method: as §1
as §2, with “For assay, membranes expressing human EP4, EP3, EP2 or EP1 receptors were incubated in Millipore (MHVBN45) plates containing assay buffer, radiolabelled [^3H]PGE2 and 0.1 to 10 000 nM concentrations of compounds. Incubations” for “Incubations”
as §3

T1 sequence (P35408 whole entry): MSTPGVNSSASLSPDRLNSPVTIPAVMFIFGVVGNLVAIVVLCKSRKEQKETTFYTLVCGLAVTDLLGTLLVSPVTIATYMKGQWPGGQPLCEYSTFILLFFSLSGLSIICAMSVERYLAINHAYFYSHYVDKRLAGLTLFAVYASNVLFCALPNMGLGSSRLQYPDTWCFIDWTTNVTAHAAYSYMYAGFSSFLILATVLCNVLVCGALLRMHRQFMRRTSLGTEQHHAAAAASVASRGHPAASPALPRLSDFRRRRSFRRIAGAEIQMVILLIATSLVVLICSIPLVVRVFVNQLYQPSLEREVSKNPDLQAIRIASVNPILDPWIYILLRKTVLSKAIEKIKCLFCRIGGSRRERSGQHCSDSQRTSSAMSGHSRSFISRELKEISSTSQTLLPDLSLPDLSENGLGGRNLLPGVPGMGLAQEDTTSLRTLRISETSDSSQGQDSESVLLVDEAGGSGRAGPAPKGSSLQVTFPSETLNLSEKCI

Ki (human EP4 receptor) [µM]	Ki (human EP2 receptor) [µM]	Ki (human EP3 receptor) [µM]	Compound
< 3.16	> 10	> 10	Cc1oc(C(=O)O)cc1CNc1ccc(-c2ccccc2)cc1 [Compound 160, 4-(Biphenyl-4-ylaminomethyl)-5-methyl-furan-2-carboxylic acid]
< 1	> 10	> 10	Cc1oc(S(=O)(=O)NC(=O)c2cccnc2)cc1COc1ccc(-c2ccccc2)cc1 [Compound 68, 4-(Biphenyl-4-yloxymethyl)-5-methyl-furan-2-sulphonic acid (pyridine-3-carbonyl)-amide]
< 10	> 10	> 10	Cc1oc(C(=O)O)cc1COc1ccc(-c2ccc(N(C)C)cc2)cc1 [Compound 113, 4-(4′-Dimethylamino-biphenyl-4-yloxymethyl)-5-methyl-furan-2-carboxylic acid]
< 3.16	> 10	> 10	N#Cc1ccc(-c2ccc(OCc3cc(C(=O)O)oc3C(F)(F)F)cc2)cc1 [Compound 93, 4-(4′-Cyano-biphenyl-4-yloxymethyl)-5-trifluoromethyl-furan-2-carboxylic acid]
< 0.1	> 10	> 10	Cc1oc(-c2nnn[nH]2)cc1COc1ccc(-c2ccccc2)cc1 [Compound 149, 5-[4-(Biphenyl-4-yloxymethyl)-5-methyl-furan-2-yl]-1H-tetrazole]
< 3.16	> 10	> 10	CC(=O)c1cccc(-c2ccc(OCc3cc(C(=O)O)oc3C)cc2)c1 [Compound 117, 4-(3′-Acetyl-biphenyl-4-yloxymethyl)-5-methyl-furan-2-carboxylic acid]
< 0.1	> 10	> 10	Cc1oc(/C=C/C(=O)O)cc1COc1ccc(-c2ccccc2)cc1 [Compound 42, 3-[4-(Biphenyl-4-yloxymethyl)-5-methyl-furan-2-yl]-acrylic acid]
	> 10	> 10	O=C(O)c1cc(COc2ccc(-c3ccccc3)cc2)c(C(F)(F)F)o1 [Compound 90, 4-(Biphenyl-4-yloxymethyl)-5-trifluoromethyl-furan-2-carboxylic acid]
	> 10	> 10	COc1cccc(-c2ccc(OCc3cc(C(=O)O)oc3C)cc2)c1 [Compound 116, 4-(3′-Methoxy-biphenyl-4-yloxymethyl)-5-methyl-furan-2-carboxylic acid]
	> 10	> 10	O=C(O)c1cc(COc2ccc(-c3ccccc3)cc2)co1 [Compound 77, 4-(Biphenyl-4-yloxymethyl)-furan-2-carboxylic acid]
	> 10	> 10	Cc1oc(C(=O)O)cc1COc1ccc(-c2ccc(OC(F)F)cc2)cc1 [Compound 129, 4-(4′-Difluoromethoxy-biphenyl-4-yloxymethyl)-5-methyl-furan-2-carboxylic acid]

Further lines, the molecule ahead of its results:

Compound	Ki (human EP4 receptor) [µM]	Ki (human EP2 receptor) [µM]	Ki (human EP3 receptor) [µM]
COc1ccc(-c2ccc(NCc3cc(C(=O)NS(=O)(=O)c4ccccc4C)oc3C)cc2)nc1 [Compound 167, N-(4-{[4-(5-Methoxy-pyridin-2-yl)-phenylamino]-methyl}-5-methyl-furan-2-carbonyl)-2-methyl-benzenesulphonamide]	< 0.316	> 10	> 10
Cc1ccccc1S(=O)(=O)NC(=O)c1cc(CS(=O)(=O)c2ccc(-c3ccc(OC(F)F)cc3)cc2)c(C)o1 [Compound 156a, N-[4-(4′-Difluoromethoxy-biphenyl-4-sulfonylmethyl)-5-methyl-furan-2-carbonyl]-2-methyl-benzenesulfonamide]	< 10	> 10	> 10
Cc1oc(C(=O)NS(=O)(=O)c2ccccc2)cc1CSc1ccc(-c2ccc(OC(F)F)cc2)cc1 [Compound 155, N-[4-(4′-Difluoromethoxy-biphenyl-4-ylsulphanylmethyl)-5-methyl-furan-2-carbonyl]-benzenesulphonamide]	< 1	> 3.16	> 3.16
COc1ccc(-c2ccc(OCc3cc(C(=O)O)oc3C)cn2)cc1 [Compound 56, 4-[6-(4-Methoxy-phenyl)-pyridin-3-yloxymethyl]-5-methyl-furan-2-carboxylic acid]	< 3.16	> 31.6	> 10
COc1ccc(-c2ccc(OCc3cc(/C=C/C(=O)O)oc3C)cc2)cc1 [Compound 43, 3-[4-(4′-Methoxy-biphenyl-4-yloxymethyl)-5-methyl-furan-2-yl]-acrylic acid]	< 0.1	> 10	> 10
Cc1oc(C(=O)NS(=O)(=O)c2ccccc2)cc1CNc1ccc(-c2ccc(OC(F)F)cc2)cc1 [Compound 172, N-{4-[(4′-Difluoromethoxy-biphenyl-4-ylamino)-methyl]-5-methyl-furan-2-carbonyl}-benzenesulphonamide]	< 0.01	> 10	> 10
COc1ccc(-c2ccc(OCc3cc(C(=O)O)oc3C)cc2)c(C)c1 [Compound 144, 4-(4′-Methoxy-2′-methyl-biphenyl-4-yloxymethyl)-5-methyl-furan-2-carboxylic acid]	< 1	> 10	> 10
Cc1oc(C(=O)O)cc1CSc1ccc(-c2ccc(OC(F)F)cc2)cc1 [Compound 153, 4-(4′-Difluoromethoxy-biphenyl-4-ylsulphanylmethyl)-5-methyl-furan-2-carboxylic acid]	< 1	> 10	> 10
Cc1oc(C(=O)O)cc1CN(C)c1ccc(-c2ccc(OC(F)F)cc2)cc1 [Compound 176, 4-{[(4′-Difluoromethoxy-biphenyl-4-yl)-methyl-amino]-methyl}-5-methyl-furan-2-carboxylic acid]	< 0.316	> 10	> 10
COc1ccc(-c2ccc(OCc3cc(C(=O)NS(=O)(=O)c4ccc(C)cn4)oc3C)cc2)cc1 [Compound 11, 5-Methyl-pyridyl-2-sulfonic acid [4-(4′-methoxy-biphenyl-4-yloxymethyl)-5-methyl-furan-2-carbonyl]-amide]		> 10	> 10
COc1ccc(-c2ccc(OCc3cc(C(=O)NS(=O)(=O)c4c(C)noc4C)oc3C)cc2)c(C)c1 [Compound 146, 3,5-Dimethyl-isoxazole-4-sulphonic acid [4-(4′-methoxy-2′-methyl-biphenyl-4-yloxymethyl)-5-methyl-furan-2-carbonyl]-amide]		> 10	> 10
COc1ccc(-c2ccc(OCc3cc(C(=O)NS(=O)(=O)c4ccc(CN)cc4)oc3C)cc2)cc1 [Compound 12, 4-Aminomethyl-N-[4-(4′-methoxy-biphenyl-4-yloxymethyl)-5-methyl-furan-2-carbonyl]-benzenesulfonamide trifluoroacetate]		> 10	> 10
Cc1ccccc1S(=O)(=O)NC(=O)c1cc(CNc2ccc(-c3ccccc3)cc2)c(C)o1 [Compound 162, N-[4-(Biphenyl-4-ylaminomethyl)-5-methyl-furan-2-carbonyl]-2-methyl-benzenesulfonamide]		> 10	> 10
COc1ccc(-c2ccc(OCc3cc(C(=O)NS(=O)(=O)c4c(C)noc4C)oc3C)cc2)nc1 [Compound 133, 3,5-Dimethyl-isoxazole-4-sulphonic acid {4-[4-(5-methoxy-pyridin-2-yl)-phenoxymethyl]-5-methyl-furan-2-carbonyl}-amide]		> 10	> 10
COc1ccc(-c2ccc(OCc3cc(C(=O)NS(=O)(=O)c4cccs4)oc3C)cc2)cc1 [Compound 10, Thiophene-2-sulfonic acid [4-(4′-methoxy-biphenyl-4-yloxymethyl)-5-methyl-furan-2-carbonyl]-amide]		> 3.16	> 10
COc1ccc(-c2ccc(OCc3cc(S(=O)(=O)NC(=O)c4c(C)noc4C)oc3C)cc2)cc1 [Compound 69, 4-(4′-Methoxy-biphenyl-4-yloxymethyl)-5-methyl-furan-2-sulphonic acid (3,5-dimethyl-isoxazole-4-carbonyl)-amide]	< 0.1		
COc1ccc(-c2ccc(OCc3cc(C(=O)NS(=O)(=O)c4ccccc4)oc3C)cc2)cc1 [Compound 5, N-[4-(4′-Methoxy-biphenyl-4-yloxymethyl)-5-methyl-furan-2-carbonyl]-benzenesulfonamide]		> 3.16	> 10
